What was measured:
[1] = system: Wnt activity (Sp5-Luc reporter in SW480 cells); experiment: Screening assay for Wnt activity: Sp5-Luc reporter gene assay in SW480 colon carcinoma cells; assay type: cell-based, human; conditions: Homo sapiens, 36 to 48 hours
In short: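 EC50 values come from a variable-slope four-parameter fit of luminescence normalized to DMSO-only wells. The read-out follows 36–48 h incubation at 37 °C, 5% CO2, in DMEM containing 1% fetal bovine serum. Cells are hygromycin-selected SW480 stably expressing firefly luciferase under a Wnt-responsive Sp5 promoter (eight TCF/LEF sites).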

DYRK1A kinase = DYRK1A kinase (Homo sapiens (Human), UniProt Q13627); experiment: DYRK1A kinase assay (Ser/Thr 18 peptide Z-lyte FRET); assay type: biochemical; conditions: read-out: EC50 (method: IC50)
In short: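 Kinase reactions with compound ran 1 h at room temperature in duplicate, and development reagent was then added for another hour.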

GSK3β kinase = GSK3β kinase (Homo sapiens (Human), UniProt P49841); experiment: GSK3β kinase assay (Ser/Thr 09 peptide Z-lyte FRET); assay type: biochemical; conditions: read-out: EC50 (method: IC50)
In short: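 Non-radioactive Z-lyte FRET read-out, kinase activity expressed as coumarin/fluorescein emission ratio. Compounds incubated with the reaction mixture one hour at room temperature in duplicate, then development buffer added for another hour. IC50 from non-linear regression of dose-response curves.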

[2] = system: SW480 colon carcinoma cells; experiment: Cell viability assay (CellTiter-Glo) in SW480 colon carcinoma cells; assay type: cell-based, human; conditions: Homo sapiens, 96 h, four days
In short: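 Viability was taken from CellTiter-Glo ATP luminescence, read about 12 min after reagent addition, relative to DMSO controls. The cells were Sp5-Luc reporter SW480 colon carcinoma cells, 2,000/well in 1% FBS DMEM, exposed to compound for four days at 37 °C.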

[3] = system: primary human fibroblasts derived from IPF patients (LL29 cells); experiment: Inhibition of the fibrotic process: αSMA staining in TGF-β1 treated LL29 fibroblasts; assay type: cell-based; conditions: Homo sapiens, Fibroblast, 96 h; LL29 cells, TGF-β1 20 ng/mL, 4 days, % αSMA positive cells
In short: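 LL29 fibroblasts from IPF patients, in F12 medium with 1% FBS, treated with TGF-β1 plus compound; TGF-β1 with DMSO as positive control, DMSO alone as negative control. After 4 days' incubation, SYTOX green nucleic acid stain added at 1 μM final, 30 min at room temperature.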

IL-6 = IL-6 inhibition in LPS-stimulated human peripheral blood mononuclear cells (HTRF); assay type: cell-based; conditions: Homo sapiens, PBMC; for EC50: huPBMCs, LPS 50 ng/mL, 22 hours, IL-6 HTRF; for inhibition at 10 µM: read-out: percent inhibition at 10 μM
In short: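 HTRF 665/620 nm ratio, read after 3 h antibody incubation at room temperature, quantified IL-6 released by fresh human PBMCs (1×10e6 cells/mL, 1% FBS-RPMI). The cells got compound, then 50 ng/mL LPS at 2 h, followed by a further 22 h at 37° C. EC50 came from DMSO-normalized readings run in duplicate.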

GSK3β kinase, sequence (P49841 whole entry): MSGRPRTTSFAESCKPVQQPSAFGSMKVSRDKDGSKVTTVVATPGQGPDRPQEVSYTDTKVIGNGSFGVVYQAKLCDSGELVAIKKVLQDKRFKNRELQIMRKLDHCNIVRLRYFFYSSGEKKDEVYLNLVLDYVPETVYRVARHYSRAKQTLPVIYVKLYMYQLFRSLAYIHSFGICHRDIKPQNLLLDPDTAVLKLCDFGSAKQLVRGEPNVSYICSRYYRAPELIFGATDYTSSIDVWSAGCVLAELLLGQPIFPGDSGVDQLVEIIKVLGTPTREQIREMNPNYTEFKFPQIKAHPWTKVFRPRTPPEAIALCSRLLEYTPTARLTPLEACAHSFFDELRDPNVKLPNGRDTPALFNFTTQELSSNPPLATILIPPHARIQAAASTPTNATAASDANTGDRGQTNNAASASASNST

Structure (SMILES) | EC50 [1] | IC50 (DYRK1A kinase) | IC50 (GSK3β kinase) | EC50 [2] | EC50 (IL-6) | EC50 [3] | inhibition at 10 µM (IL-6)
O=C(Nc1ccc(OC(F)F)nc1)c1n[nH]c2ccc(-c3cnn(CCN4CCCC4)c3)cc12 [Compound 89, N-(6-(Difluoromethoxy)pyridin-3-yl)-5-(1-(2-(pyrrolidin-1-yl)ethyl)-1H-pyrazol-4-yl)-1H-indazole-3-carboxamide] | 4.34 µM | 0.304 µM | 0.656 µM | 4.6 µM | 6.59 µM | 1.2 µM | 
O=C(Nc1ccc(OC(F)F)cc1)c1n[nH]c2ccc(-c3cnn(CC4CCNCC4)c3)cc12 [Compound 63, N-(4-(Difluoromethoxy)phenyl)-5-(1-(piperidin-4-ylmethyl)-1H-pyrazol-4-yl)-1H-indazole-3-carboxamide] | 9.44 µM | 0.767 µM | 2.32 µM | 0.768 µM | > 10 µM | 2.03 µM | 6.2%
CN1CCN(c2ccc(NC(=O)c3n[nH]c4cc(F)c(-c5cnn(C)c5)cc34)cn2)CC1 [Compound 95, 6-Fluoro-5-(1-methyl-1H-pyrazol-4-yl)-N-(6-(4-methylpiperazin-1-yl)pyridin-3-yl)-1H-indazole-3-carboxamide] | 0.175 µM | 0.001 µM | 0.046 µM | 0.286 µM | 1 µM | 0.195 µM | 
O=C(Nc1ccc(OC(F)F)cc1)c1n[nH]c2ccc(-c3cnn(C4CCNCC4)c3)cc12 [Compound 55, N-(4-(Difluoromethoxy)phenyl)-5-(1-(piperidin-4-yl)-1H-pyrazol-4-yl)-1H-indazole-3-carboxamide] | 0.428 µM | 0.037 µM | 1.23 µM | 1.34 µM | 3.85 µM | 0.236 µM | 
O=C(N[C@H]1CC[C@H](CN2CC(F)C2)CC1)c1n[nH]c2ccc(-c3cnn(C4CC4)c3)cc12 [Compound 26, 5-(1-Cyclopropyl-1H-pyrazol-4-yl)-N-((1R,4R)-4-((3-fluoroazetidin-1-yl)methyl)cyclohexyl)-1H-indazole-3-carboxamide] | 1.18 µM | 0.005 µM | 0.034 µM | 0.849 µM | 1.04 µM | > 10 µM | 
CC(C)CNC(=O)c1n[nH]c2ccc(-c3cn[nH]c3)cc12 [Compound 1, N-Isobutyl-5-(1H-pyrazol-4-yl)-1H-indazole-3-carboxamide] | 0.358 µM | 0.03 µM | 0.028 µM | 2.58 µM | 1.17 µM | 0.16 µM | 
Cn1cc(-c2ccc3[nH]nc(C(=O)NC4CCC(F)(F)CC4)c3c2)cn1 [Compound 14, N-(4,4-Difluorocyclohexyl)-5-(1-methyl-1H-pyrazol-4-yl)-1H-indazole-3-carboxamide] | 0.903 µM | 0.018 µM | 0.023 µM | > 10 µM | 3.54 µM | 0.114 µM | 
O=C(N[C@H]1CC[C@H](CN2CC(F)C2)CC1)c1n[nH]c2ccc(-c3cnn4c3CCCC4)cc12 [Compound 27, N-((1R,4R)-4-((3-Fluoroazetidin-1-yl)methyl)cyclohexyl)-5-(4,5,6,7-tetrahydropyrazolo[1,5-a]pyridin-3-yl)-1H-indazole-3-carboxamide] | 0.677 µM | 0.004 µM | 0.012 µM | 6.45 µM | 3.82 µM | 0.346 µM | 
Cn1cc(-c2ccc3[nH]nc(C(=O)N[C@H]4CC[C@H](CN5CCCC5)CC4)c3c2)cn1 [Compound 28, 5-(1-Methyl-1H-pyrazol-4-yl)-N-((1R,4R)-4-(pyrrolidin-1-ylmethyl)cyclohexyl)-1H-indazole-3-carboxamide] | 0.688 µM | 0.002 µM | 0.011 µM | 0.442 µM | 0.401 µM | 0.409 µM | 
CCn1cc(-c2ccc3[nH]nc(C(=O)NC4CCC(F)(F)CC4)c3c2)cn1 [Compound 18, N-(4,4-Difluorocyclohexyl)-5-(1-ethyl-1H-pyrazol-4-yl)-1H-indazole-3-carboxamide] | 0.801 µM | 0.121 µM | 0.06 µM | 7.46 µM | 3.82 µM | 0.95 µM | 
Cn1ncc(-c2ccc3[nH]nc(C(=O)NC4CCN(CC(C)(C)F)CC4)c3c2)c1C(F)F [Compound 41, 5-(5-(Difluoromethyl)-1-methyl-1H-pyrazol-4-yl)-N-(1-(2-fluoro-2-methylpropyl)piperidin-4-yl)-1H-indazole-3-carboxamide] | 0.828 µM | 0.25 µM | 0.076 µM | 3 µM | 2.86 µM | 0.342 µM | 
CC(C)CNC(=O)c1n[nH]c2ccc(-c3cnn(C)c3)cc12 [Compound 2, N-Isobutyl-5-(1-methyl-1H-pyrazol-4-yl)-1H-indazole-3-carboxamide] | 0.819 µM | 0.025 µM | 0.011 µM | 5.98 µM | 3.01 µM | 0.075 µM | 

Further lines, with some results ahead:

EC50 [1] | IC50 (DYRK1A kinase) | IC50 (GSK3β kinase) | EC50 [2] | EC50 (IL-6) | Structure (SMILES) | EC50 [3] | inhibition at 10 µM (IL-6)
8.52 µM | 0.019 µM | 0.783 µM | 5 µM | 3.44 µM | CN1CCC(Oc2ccc(NC(=O)c3n[nH]c4cc(F)c(-c5cnn(C(F)F)c5)cc34)cc2)CC1 [Compound 80, 5-(1-(Difluoromethyl)-1H-pyrazol-4-yl)-6-fluoro-N-(4-((1-methylpiperidin-4-yl)oxy)phenyl)-1H-indazole-3-carboxamide] | 1.3 µM | 
1.59 µM | 0.006 µM | 0.43 µM | 0.823 µM | > 10 µM | O=C(Nc1ccc(N2CCCC2)nc1)c1n[nH]c2ccc(-c3cnn(C4CCNCC4)c3)cc12 [Compound 93, 5-(1-(Piperidin-4-yl)-1H-pyrazol-4-yl)-N-(6-(pyrrolidin-1-yl)pyridin-3-yl)-1H-indazole-3-carboxamide] | 1.2 µM | 5.5%
1.55 µM | 0.003 µM | 0.068 µM | 6.97 µM | 1.16 µM | Cn1cc(-c2ccc3[nH]nc(C(=O)Nc4ccc(CN5CCCC5)cc4F)c3c2)cn1 [Compound 73, N-(2-Fluoro-4-(pyrrolidin-1-ylmethyl)phenyl)-5-(1-methyl-1H-pyrazol-4-yl)-1H-indazole-3-carboxamide] | 0.799 µM | 
1.13 µM | 0.05 µM | 0.332 µM | 2.1 µM | > 10 µM | O=C(Nc1ccc(N2CCCC2)nc1)c1n[nH]c2ccc(-c3cnn(C4CC4)c3)cc12 [Compound 91, 5-(1-Cyclopropyl-1H-pyrazol-4-yl)-N-(6-(pyrrolidin-1-yl)pyridin-3-yl)-1H-indazole-3-carboxamide] | 1.49 µM | 53.6%
0.239 µM | 0.023 µM | 0.26 µM | 0.354 µM | 5.42 µM | O=C(Nc1ccc(F)cc1)c1n[nH]c2ccc(-c3cnn(C4CCNCC4)c3)cc12 [Compound 48, N-(4-Fluorophenyl)-5-(1-(piperidin-4-yl)-1H-pyrazol-4-yl)-1H-indazole-3-carboxamide] | 0.449 µM | 
> 10 µM | 0.134 µM | 0.106 µM | 8.95 µM | 9.07 µM | C[C@@H](NC(=O)c1n[nH]c2ccc(-c3cnn(C)c3)cc12)C(F)(F)F [Compound 3, (R)-5-(1-Methyl-1H-pyrazol-4-yl)-N-(1,1,1-trifluoropropan-2-yl)-1H-indazole-3-carboxamide] | 2.58 µM | 
